Results as given in US9131687B2, “Roseobacticides and uses thereof” (PRESIDENT AND FELLOWS OF HARVARD COLLEGE, priority 2010, dated 2015).
“And” between values parts separate entries of the source, which are not always exact repeats. Equal entries are not always repeated. Where two headings read alike, the source gives them in different places.

What was measured:
P. gallaeciensis BS107 = assay: Elicitation of roseobacticide production, HPLC-MS; type: cell-based, Phaeobacter gallaeciensis BS107; details: for secondary metabolite production by HPLC-MS: P. gallaeciensis BS107 incubated with elicitor; for EC50: Phaeobacter gallaeciensis
Experimental: (§1) Roseobacter (Phaeobacter gallaeciensis BS107, Ruegeria sp. R11 and Silicibacter pomeroyi DSS3) and other marine strains (see Table 4) were streaked out from frozen stocks and maintained on Marine Broth (Difco 2216) supplemented with 1.5% agar and incubated at 30° C. for two days. A 50 mL test tube containing 5 mL of ½ strength yeast extract, tryptone and sea salt medium (YTSS, per L: 2 g yeast extract, 1.25 g tryptone, 20 g sea salt) was inoculated with each strain and grown overnight at 30° C. on a horizontal rotating drum fermenter. A 500 mL Erlenmeyer flask containing 50 mL of YTSS medium and 0-3 mM pCA was inoculated with 0.5 mL of the overnight culture and incubated at 160 rpm and 30° C. for 3 d. After 3 d, each culture was extracted once with an equal volume of ethyl acetate, dried in vacuo, resuspended in methanol and analyzed by HPLC-MS as described above.
Preparative-scale (2-8 L) cultivation of P. gallaeciensis BS107 (or other roseobacter strains) was carried out in half-strength yeast extract-tryptonesea salt (YTSS) medium, which consists of (per L): 20 g Sigma sea salt, 2 g yeast extract, and 1.25 g tryptone. P. gallaeciensis BS107 (or other roseobacter strains) were streaked out from frozen culture stocks and maintained on Marine Broth agar plates (Difco 2216) at 30° C. Overnight cultures were initiated by inoculating 5 mL YTSS medium in 15 mL culture tubes and shaking these overnight at 250 rpm and 30° C. A 0.5 L Erlenmeyer flask containing 50 mL YTSS medium was inoculated with 0.5 mL of the overnight culture and grown for 12-18 h at 30° C. and 160 rpm. Large 4 L Erlenmeyer flasks, each containing 0.4 L YTSS medium, were inoculated with 4 mL of the overnight culture and supplemented with 1 mM of each of the elicitors (14-18). The cultures were grown for 3 d at 30° C. and roseobacticides purified as described below.
Eight to ten 0.25 L Erlenmeyer flasks each containing 25 mL of YTSS medium and a range of elicitor concentrations (between 0 and 1.2 mM) were inoculated with 0.25 mL of an overnight P. gallaeciensis BS107 culture prepared as described above. These were grown at 30° C. and 160 rpm. After 3 d, each culture was extracted twice with 25 mL of EtOAc. The organic phase was combined, dried over Na2SO4, and subsequently dried in vacuo. The residue was resuspended in 0.3 mL MeOH and analyzed by HPLC-MS as described above. The amount of roseobacticide B (7) produced, which was quantified by massion extraction ([M+H]^+=269), was plotted against the concentration of the elicitor. The maximal amount of 7 was normalized to 100%, and the EC50, the elicitor concentration where production of 7 was half-maximal, was obtained by fitting the data to equation 1, where Bmax and Bmin are the maximal (˜100%) and minimal (˜0%) amounts of 7 and p is a Hill slope parameter to account for variations in the slope. Bmax and Bmin were allowed to vary to obtain the optimal fit as judged by the R^2 correlation value.

Emiliana huxleyi CCMP372 = assay: Algaecidal assay, cell counts by flow cytometry and microscopy; type: cell-based; details: for IC50: Emiliana huxleyi CCMP372, 24 h, flow cytometry; for algal cell population damaged yet intact: lowest Roseobacticide concentration tested, microscopy; for effect of incubation on E. huxleyi cells: microscopy at 12 and 24 h
Experimental: (§2) The algaecidal effect of Roseobacticide A and B was tested against five axenic microalgae (the Prymnesiophytes Emiliana huxleyi (CCMP372) and Isochrysis sp. (CCMP468), the green alga Tetraselmis suecica (CCMP908), the diatom Chaetoceros muelleri (CCMP1318) and the cryptomonad Rhodomonas salina (CCMP1319)). All strains were grown on L1 media except for CCMP1318, which was grown in L1+Si (Guillard, R. R. L. & Hargraves, P. E., 1993, Phycologia 32: 234-236). All strains were maintained at 24° C. under 12 h:12 h light:dark illumination.
(§3) To perform assays, algal cultures were diluted 1:1 with the medium they were grown in and then 1 mL aliquots were placed in a 48 well microtitre plate and treated with 0.01-0.000000001 mg/mL of Roseobacticide A or B, or alternatively with MeOH solvent, or medium (as controls) and incubated for 24 h at 24° C. under 12 h: 12 h light:dark illumination. Each treatment was monitored microscopically at 2, 12 and 24 h. Cell counts were determined by flow cytometry and compared to the solvent control.
(§4) Flow cytometry. For flow cytometry counts, duplicate 0.5 ml samples were fixed with 0.125% (vol/vol) glutaraldehyde in the dark for 10 min. Cells were then frozen in an ethanol dry ice bath and stored at −80° C. until analyzed. Cell concentrations were measured with an EPICS flow cytometer using red fluorescence and forward angle light scattering properties to identify the cells as previously described (Cavender-Bares, K. K., et al., 1998, Limnol. Oceanogr. 43:1383-1388).

Isochrysis sp. CCMP468 = assay: as above; type: cell-based; details: Isochrysis sp. CCMP468, 24 h, flow cytometry
Experimental: as §2, §3, §4

[1] = tested on: Chaetoceros muelleri CCMP1318; assay: as above; type: cell-based
Experimental: as §2, §3, §4

[2] = tested on: Tetraselmis suecica CCMP908; assay: as above; type: cell-based; details: Tetraselmis suecica CCMP908, 24 h, flow cytometry
Experimental: as §2, §3, §4

[3] = tested on: Rhodomonas salina CCMP1319; assay: as above; type: cell-based; details: for IC50: Rhodomonas salina CCMP1319, 24 h, flow cytometry
Experimental: as §2, §3, §4

[4] = tested on: panel of marine bacteria and B. subtilis 3610; assay: Antibacterial assay against the whole panel of test strains (96 well plate, OD650); type: cell-based; details: 10 μL of 0.5 mg/mL or 0.25 mg/mL, 24 hours, 30° C., all test strains
Experimental: (§5) Selected bacterial strains (see Table 4) were tested against Roseobacticide A using the disc diffusion assay (Gauvreau, D. & Waring, M., 1982, J. Appl. Microbiol. Biotechnol. 115:104-110). Overnight cultures of each test strain in YTSS were diluted 1000-fold into YTSS containing 0.7% agar and poured into standard Petri dish plates. Blank paper discs (8 mm, Fisher Scientific) were loaded with 50 μg of phaeobactin A and placed on top of the agar. The plates were incubated at 30° C. for 12-24 h and the presence or absence of an inhibition zone was monitored visually. Ampicillin (0.5 μg) and MeOH were used as positive and negative controls, respectively. In addition, the assay was carried out in 96 well plates according to the 2003 guidelines of the Clinical and Laboratory Standards Institute (CLSI, formerly NCCLS) with minor changes.
Roseobacters were grown and tested in YTSS medium, B. subtilis 3610 in LB, and P. tunicate D2 in Marine Broth (Difco 2216). […] The plate was incubated without shaking for 24 hours at 30° C., and the OD650 nm determined on a Molecular Devices 96 well plate reader. […] The OD650 nm for the wells containing Roseobacticide A in all each cases was between 80-100% of the value determined for the respective negative controls.

Bacillus subtilis 3610 = assay: IC50 of Roseobacticide A against selected bacterial strains (disc diffusion / 96 well plate); type: cell-based
Experimental: as §5
(§6) Roseobacters were grown and tested in YTSS medium, B. subtilis 3610 in LB, and P. tunicate D2 in Marine Broth (Difco 2216). Inocula for each test organism were prepared by suspending a colony from an agar plate into 5 mL of YTSS, LB, or Marine Broth in 15 mL bacterial culture tubes. These were grown overnight, and then adjusted to 1×10^8 cells/mL. These cell suspensions were used as inocula for 96 well plate assays: 10 μL of inoculum, corresponding to 1×10^6 cells was added to 90 μL of the appropriate medium and supplemented with 10 μL medium (negative control), 10 μL of MeOH (negative control), 10 μL of 0.5 mg/mL, or 0.25 mg/mL of Roseobacticide A. The assay against each test strain was carried out in duplicate. The plate was incubated without shaking for 24 hours at 30° C., and the OD650 nm determined on a Molecular Devices 96 well plate reader. […] The OD650 nm for the wells containing Roseobacticide A in all each cases was between 80-100% of the value determined for the respective negative controls.

Vibrio anguillarum = assay: as above; type: cell-based
Experimental: as §5, §6

[5] = tested on: Silicibacter pomeroyi DSS3; assay: as above; type: cell-based; details: Ruegeria pomeroyi
Experimental: as §5, §6

Silicibacter sp. TM1040 = assay: as above; type: cell-based
Experimental: as §5, §6

[6] = tested on: Phaeobacter gallaeciensis 2.10; assay: as above; type: cell-based
Experimental: as §5, §6

Reugeria sp. R11 = assay: as above; type: cell-based
Experimental: as §5, §6

[7] = tested on: Pseudoalteromonas tunicata D2; assay: as above; type: cell-based
Experimental: as §5, §6

[8] = tested on: Phaeobacter gallaeciensis BS107; assay: as above; type: cell-based
Experimental: as §5, §6

algae = assay: Algicidal activity (lysis of algae), summary over algae; type: cell-based; details: read-out: LC50 range, algicidal activity
Experimental: as §2, §3
as §4, with “For flow cytometry counts, duplicate 0.5 ml samples were fixed with 0.125% (vol/vol) glutaraldehyde in the dark for 10 min.” left out

Ruegeria sp. R11 = assay: pCA-dependent changes of HPLC-MS profile; type: cell-based; details: 0.1-3 mM pCA
Experimental: as §1
(§7) The inventors cultured three roseobacter strains—S. pomeroyi DSS-3, Ruegeria sp. R11, and P. gallaeciensis BS107—in the presence of varying pCA concentrations (0.1-3 mM). At various time points, the cultures were extracted with ethyl acetate and analyzed by HPLC-MS. The HPLC-MS profiles from S. pomeroyi and Ruegeria sp. […] In the absence of pCA, these compounds were not produced by P. gallaeciensis under any of the conditions that were investigated.

S. pomeroyi DSS-3 = assay: pCA-dependent changes of HPLC-MS profile; type: cell-based, Silicibacter pomeroyi DSS-3; details: 0.1-3 mM pCA
Experimental: as §1, §7

P. gallaeciensis = assay: Growth (OD650 nm) of P. gallaeciensis cultivated with pCA; type: cell-based, Phaeobacter gallaeciensis; details: 1 mM pCA, YTSS medium, 3 d, triplicate
Experimental: as §1
The profiles shown in FIG. 1B have not been corrected for the lower cell density observed in the presence of pCA.

[9] = BS107, 72 h, 3 d culture, HPLC-MS ion extraction, read-out: EC50, elicitor concentration where production of roseobacticide B (7) is half-maximal

COc1cc(/C=C/C(=O)O)ccc1O [Roseobacticide 16, ferulic acid]
secondary metabolite production by HPLC-MS (P. gallaeciensis BS107): production of a variety of new metabolites
EC50 (P. gallaeciensis BS107; [9]): 160 ± 20 µM

CSc1ccccc2c(-c3ccccc3)c(=O)oc1-2 [Roseobacticide B]
IC50 (Emiliana huxleyi CCMP372): 0.19 µM and ≥ 0.19 µM
algal cell population damaged yet intact (Emiliana huxleyi CCMP372): 48%
effect of incubation on E. huxleyi cells (Emiliana huxleyi CCMP372): cell lysis after 24 h, with cellular damage visible after 12 h

CSSc1cccc2c(-c3ccccc3)c(=O)oc-2c1 [Roseobacticide E]
initial bioassays against E. huxleyi (Emiliana huxleyi CCMP372): potent antialgal compounds

CSc1cccc2c(-c3ccc(O)cc3)c(=O)oc-2c1 [Roseobacticide A]
IC50 (Isochrysis sp. CCMP468): > 35 µM
effect on C. muelleri cell shape ([1]; 3.5 μM, 24 h): major morphological changes
IC50 ([1]; Chaetoceros muelleri CCMP1318, 24 h, flow cytometry): > 35 µM
IC50 (Emiliana huxleyi CCMP372): ≥ 2.2 µM
algal cell population damaged yet intact (Emiliana huxleyi CCMP372): 20%
effect of incubation on E. huxleyi cells (Emiliana huxleyi CCMP372): cell lysis after 24 h, with cellular damage visible after 12 h
IC50 [2]: > 35 µM
IC50 [3]: ≥ 0.1 µM
IC50 ([3]; Rhodomonas salina, 24 h): 0.1 µM
susceptibility of the R. salina population ([3]; dose response, micrographs): Only a subpopulation appears to be susceptible
OD650 nm relative to the respective negative controls [4]: 80-100%
IC50 (Bacillus subtilis 3610): > 160 µM
IC50 (Vibrio anguillarum): > 160 µM
IC50 [5]: > 160 µM
IC50 (Silicibacter sp. TM1040): > 160 µM
IC50 [6]: > 160 µM
IC50 (Reugeria sp. R11): > 160 µM
IC50 [7]: > 160 µM
IC50 [8]: > 160 µM
CC50 (algae): 0.1 to 35 µM

O=C(O)/C=C/c1ccc(O)cc1 [pCA, p-coumaric acid]
secondary metabolite production by HPLC-MS (P. gallaeciensis BS107): stimulated the production of a family of compounds
secondary metabolite production by HPLC-MS (P. gallaeciensis BS107; listed as 14): production of a variety of new metabolites
EC50 (P. gallaeciensis BS107; [9]): 790 ± 30 µM
EC50 (P. gallaeciensis BS107; BS107, FIG. 1C, average of two measurements, read-out: EC50, dose-response of (6) as a function of [pCA]): 790 ± 30 µM
changes of HPLC-MS profile (Ruegeria sp. R11): no significant pCA-dependent changes
changes of HPLC-MS profile (S. pomeroyi DSS-3): no significant pCA-dependent changes
OD650 nm lower than cultures without pCA (P. gallaeciensis): 17±8%

CSc1cccc2c(-c3c[nH]c4ccccc34)c(=O)oc-2c1 [Roseobacticide C]
initial bioassays against E. huxleyi (Emiliana huxleyi CCMP372): potent antialgal compounds

COc1cc(/C=C/C(=O)O)cc(OC)c1O [Roseobacticide 15, sinapic acid]
secondary metabolite production by HPLC-MS (P. gallaeciensis BS107): production of a variety of new metabolites
EC50 (P. gallaeciensis BS107; [9]): 430 ± 30 µM
